# The supplement of paper PMC10307832
# Columns and labels:
# Test in all cases: relative viability (nuclei count vs DMSO), 5 days (fraction); higher = more cells survive
# Linsitinib + Bortezomib = compound: C[C@]1(O)C[C@@H](c2nc(-c3ccc4ccc(-c5ccccc5)nc4c3)c3c(N)nccn32)C1 [Linsitinib] + CC(C)C[C@H](NC(=O)[C@H](Cc1ccccc1)NC(=O)c1cnccn1)B(O)O [Bortezomib] (partner 0.002 µM)
# In short: (§1)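 Each reported value is a median over duplicate plates. It expresses relative viability: treated-well nuclei count divided by vehicle-well nuclei count. Lung cancer cell lines in 1536-well plates were dosed by pin tool a day after seeding, alone with one drug or with a fixed anchor-drug dose plus five library-drug doses (not always all listed) in √10 steps, and nuclei were counted after 5 days.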
# Ispinesib + Linsitinib = compound: Cc1ccc(C(=O)N(CCCN)[C@@H](c2nc3cc(Cl)ccc3c(=O)n2Cc2ccccc2)C(C)C)cc1 [Ispinesib] + C[C@]1(O)C[C@@H](c2nc(-c3ccc4ccc(-c5ccccc5)nc4c3)c3c(N)nccn32)C1 [Linsitinib] (partner 1 µM)
# In short: as §1
# Ispinesib + Bortezomib = compound: Cc1ccc(C(=O)N(CCCN)[C@@H](c2nc3cc(Cl)ccc3c(=O)n2Cc2ccccc2)C(C)C)cc1 [Ispinesib] + CC(C)C[C@H](NC(=O)[C@H](Cc1ccccc1)NC(=O)c1cnccn1)B(O)O [Bortezomib] (partner 0.002 µM)
# In short: as §1
# Ispinesib + Navitoclax = compound: Cc1ccc(C(=O)N(CCCN)[C@@H](c2nc3cc(Cl)ccc3c(=O)n2Cc2ccccc2)C(C)C)cc1 [Ispinesib] + CC1(C)CCC(c2ccc(Cl)cc2)=C(CN2CCN(c3ccc(C(=O)NS(=O)(=O)c4ccc(N[C@H](CCN5CCOCC5)CSc5ccccc5)c(S(=O)(=O)C(F)(F)F)c4)cc3)CC2)C1 [Navitoclax] (partner 0.5 µM)
# In short: as §1
Cell Line,relative viability (Linsitinib + Bortezomib; first compound 0.01 µM),relative viability (Linsitinib + Bortezomib; first compound 0.03162 µM),relative viability (Linsitinib + Bortezomib; first compound 0.1 µM),relative viability (Linsitinib + Bortezomib; first compound 0.3162 µM),relative viability (Linsitinib + Bortezomib; first compound 1 µM),relative viability (Ispinesib + Linsitinib; first compound 0.001 µM),relative viability (Ispinesib + Linsitinib; first compound 0.003162 µM),relative viability (Ispinesib + Linsitinib; first compound 0.01 µM),relative viability (Ispinesib + Linsitinib; first compound 0.03162 µM),relative viability (Ispinesib + Linsitinib; first compound 0.1 µM),relative viability (Ispinesib + Bortezomib; first compound 0.001 µM),relative viability (Ispinesib + Bortezomib; first compound 0.003162 µM),relative viability (Ispinesib + Bortezomib; first compound 0.01 µM),relative viability (Ispinesib + Bortezomib; first compound 0.03162 µM),relative viability (Ispinesib + Bortezomib; first compound 0.1 µM),relative viability (Ispinesib + Navitoclax; first compound 0.001 µM),relative viability (Ispinesib + Navitoclax; first compound 0.003162 µM),relative viability (Ispinesib + Navitoclax; first compound 0.01 µM),relative viability (Ispinesib + Navitoclax; first compound 0.03162 µM),relative viability (Ispinesib + Navitoclax; first compound 0.1 µM)
NCI-H441,0.398,0.428,0.455,0.586,0.413,0.465,0.771,0.346,0.163,0.173,0.48,0.668,0.4,0.41,0.228,0.764,0.477,0.587,0.238,0.218
NCI-H520,0.666,0.331,0.754,–,0.62,1.13,0.957,1.08,0.245,0.232,0.568,0.706,0.541,0.218,0.242,1.02,1.14,1.04,0.274,0.286
CAL-12T,0.873,0.882,0.996,0.833,0.817,0.98,0.784,0.785,0.778,0.193,0.961,1.4,0.955,0.579,0.184,1.28,1.4,1.47,0.537,0.177
HCC-827,1.04,1.04,0.934,0.827,1.01,0.955,1.01,1.01,0.959,0.892,1.1,1.18,1.04,0.691,0.875,0.996,1.06,1.03,1,1.01
LC-2-ad,1,1.1,1.02,0.664,0.636,0.842,0.845,0.971,0.556,0.184,1.01,1.07,1.07,0.917,0.119,0.391,0.487,0.474,0.171,0.122
NCI-H2170,–,–,–,–,–,–,–,–,–,–,–,–,–,–,–,0.617,0.61,0.624,0.324,0.258
SW 1573,1.18,1.19,1.1,0.797,0.811,0.934,0.743,0.983,0.801,0.453,1.07,1.05,1.42,0.929,0.304,1.22,1,1.21,0.915,0.17
SK-MES-1,–,–,–,–,–,1.1,1.09,1.21,1.11,0.261,–,–,–,–,–,1.47,1.2,1.14,0.922,0.227
NCI-H1793,–,–,–,–,–,0.866,1.02,0.961,0.707,0.562,–,–,–,–,–,0.464,0.729,0.382,0.394,0.405
NCI-H1299,1.06,0.972,1.05,0.944,0.986,1.06,1.12,0.81,0.941,0.375,1.02,1.06,1.07,1.01,0.671,1.02,1.08,1.08,1.01,0.52
LCLC-97TM1,0.316,0.488,0.578,0.236,0.18,0.205,0.152,0.175,0.262,0.169,0.518,1.16,0.689,0.143,0.254,0.433,0.489,0.52,0.557,0.157
NCI-H1915,0.948,0.979,0.961,0.918,0.671,1.13,1.24,1.08,1.12,1.03,1.04,1.14,1.13,0.797,0.172,0.84,0.804,0.778,0.759,0.566
NCI-H661,0.893,0.801,0.761,0.986,0.749,0.535,0.528,0.462,0.494,0.605,0.821,0.78,0.688,0.771,0.665,–,–,–,–,–
NCI-H2405,0.592,0.929,0.949,0.676,0.921,0.974,0.755,0.968,0.783,0.435,1.02,1.05,1.11,0.924,0.81,0.884,0.72,0.942,0.779,0.276
NCI-H2347,0.885,0.737,0.941,0.77,1.05,1.01,1.04,1.13,0.805,0.913,–,1,0.665,1.08,0.758,0.819,0.727,0.967,0.762,0.609
NCI-H1651,0.954,0.976,0.792,0.82,0.916,1.16,0.921,1.18,1.05,0.203,0.934,1.16,0.926,0.796,0.712,1.28,1.13,1.3,0.991,0.213
H3255,0.803,0.796,0.812,0.541,0.627,0.919,1.19,1.06,0.785,0.292,1,0.991,0.814,0.38,0.374,0.562,0.541,0.46,0.344,0.217
Calu-6,0.996,1.04,1.05,0.867,0.905,0.998,–,0.712,0.297,0.133,0.9,0.725,0.24,0.137,0.202,0.764,0.344,0.173,0.0922,0.12
NCI-H650,0.721,0.768,0.863,–,0.584,0.995,0.958,0.887,0.358,0.245,0.875,1.25,0.826,0.582,0.355,–,–,–,–,–

Cell Line,relative viability (Linsitinib + Bortezomib; first compound 0.01 µM),relative viability (Linsitinib + Bortezomib; first compound 0.03162 µM),relative viability (Linsitinib + Bortezomib; first compound 0.1 µM),relative viability (Linsitinib + Bortezomib; first compound 0.3162 µM),relative viability (Linsitinib + Bortezomib; first compound 1 µM),relative viability (Ispinesib + Linsitinib; first compound 0.001 µM),relative viability (Ispinesib + Linsitinib; first compound 0.003162 µM),relative viability (Ispinesib + Linsitinib; first compound 0.01 µM),relative viability (Ispinesib + Linsitinib; first compound 0.03162 µM),relative viability (Ispinesib + Linsitinib; first compound 0.1 µM),relative viability (Ispinesib + Bortezomib; first compound 0.001 µM),relative viability (Ispinesib + Bortezomib; first compound 0.003162 µM),relative viability (Ispinesib + Bortezomib; first compound 0.01 µM),relative viability (Ispinesib + Bortezomib; first compound 0.03162 µM),relative viability (Ispinesib + Bortezomib; first compound 0.1 µM),relative viability (Ispinesib + Navitoclax; first compound 0.001 µM),relative viability (Ispinesib + Navitoclax; first compound 0.003162 µM),relative viability (Ispinesib + Navitoclax; first compound 0.01 µM),relative viability (Ispinesib + Navitoclax; first compound 0.03162 µM),relative viability (Ispinesib + Navitoclax; first compound 0.1 µM)
NCI-H460,1.07,1.07,1.14,0.92,1.07,1.02,0.922,1.09,0.268,0.0336,1.53,1.48,–,0.793,0.0396,1.43,1.33,–,0.785,0.0262
NCI-H2228,1.05,0.89,0.787,0.72,0.765,0.839,0.607,1,0.803,0.338,1.2,1.21,1.48,0.474,0.448,0.896,0.896,1.37,0.878,0.187
NCI-H2085,1.03,1.06,0.997,0.888,0.976,0.954,1.01,0.904,0.777,0.605,1.08,1.08,1.18,0.818,0.484,1.12,1.17,1.19,1.13,0.672
HCC-366,1.06,1.02,1.1,0.959,0.906,1.13,0.595,1.04,0.719,0.167,1.29,1.1,1.43,0.323,0.0344,1.16,1.02,1.31,1.2,0.27
EPLC-272H,0.882,1.11,1.06,–,0.857,1.17,1.53,1.48,1.05,1.06,0.869,1.13,0.935,0.655,0.163,1.24,1.21,1.25,0.784,1.02
201T,1.1,1.12,1.08,1.08,1.03,1.08,1.06,1.06,1.01,0.988,1.13,1.16,0.947,1.02,0.669,1.23,1.17,1.19,1.17,1.08
NCI-H3122,0.994,1.05,1.04,0.86,1.03,1.07,1.09,1.07,1.13,0.251,1.07,0.945,1.09,1.06,0.202,1.1,1.06,1.06,1.07,0.199
NCI-H838,0.809,0.898,0.755,0.153,0.385,1.09,1.17,1.29,0.92,0.256,0.745,0.9,0.991,0.674,0.23,1.33,1.23,1.37,0.994,0.25
NCI-H1755,0.939,0.882,0.981,0.661,0.794,1.03,1.1,1.14,0.906,0.422,0.975,1.07,1.01,0.605,0.249,1.01,1.15,1.09,0.917,0.7
LCLC-103H,1.11,0.951,1.17,1.05,0.892,1.12,1.25,1.21,1.04,1.02,0.96,1.27,1.19,0.813,0.447,–,–,–,–,–
NCI-H1650,0.208,0.202,0.184,0.182,0.223,–,–,–,–,–,0.187,0.211,0.188,0.173,0.205,1.33,1.32,1.23,0.258,0.25
LK-2,–,–,–,–,–,0.805,0.328,0.521,0.435,0.267,–,–,–,–,–,0.93,0.808,1.01,0.661,0.298
ChaGo-K-1,1.05,0.98,0.922,0.443,1,–,–,–,–,–,1.02,1.45,1.11,0.966,0.379,1.11,1.45,0.995,0.732,0.335
NCI-H358,–,–,–,–,–,0.785,0.671,0.735,0.397,0.236,–,–,–,–,–,–,–,–,–,–
A549,–,–,–,–,–,0.628,0.551,0.769,0.434,0.0756,–,–,–,–,–,1.34,1.16,1.18,0.0508,0.0539
NCI-H1563,0.835,0.86,0.87,0.719,0.827,1.29,1.19,1.27,1.1,0.844,0.903,0.815,0.929,0.687,0.669,–,–,–,–,–
NCI-H1395,–,–,–,–,–,1.1,1.04,0.966,0.407,0.436,–,–,–,–,–,1.32,1.1,1.16,0.553,0.326
NCI-H1944,–,–,–,–,–,1.24,1.38,1.18,0.975,0.979,–,–,–,–,–,0.994,1.09,1.02,0.785,0.806
ABC-1,0.325,0.291,0.276,0.284,0.252,0.94,0.874,0.965,0.376,0.338,0.269,0.317,0.302,0.197,0.273,–,–,–,–,–
